How the values were obtained:
[1] = biological target: T1, Nuclear receptor ROR-gamma (Mus musculus, UniProt P51450); test: Inverse agonist activity at RORgammat in mouse Th17 cells assessed as inhibition of IL-17 production after 3 days by ELISA; format: cell-based
T1 sequence (P51450 whole entry): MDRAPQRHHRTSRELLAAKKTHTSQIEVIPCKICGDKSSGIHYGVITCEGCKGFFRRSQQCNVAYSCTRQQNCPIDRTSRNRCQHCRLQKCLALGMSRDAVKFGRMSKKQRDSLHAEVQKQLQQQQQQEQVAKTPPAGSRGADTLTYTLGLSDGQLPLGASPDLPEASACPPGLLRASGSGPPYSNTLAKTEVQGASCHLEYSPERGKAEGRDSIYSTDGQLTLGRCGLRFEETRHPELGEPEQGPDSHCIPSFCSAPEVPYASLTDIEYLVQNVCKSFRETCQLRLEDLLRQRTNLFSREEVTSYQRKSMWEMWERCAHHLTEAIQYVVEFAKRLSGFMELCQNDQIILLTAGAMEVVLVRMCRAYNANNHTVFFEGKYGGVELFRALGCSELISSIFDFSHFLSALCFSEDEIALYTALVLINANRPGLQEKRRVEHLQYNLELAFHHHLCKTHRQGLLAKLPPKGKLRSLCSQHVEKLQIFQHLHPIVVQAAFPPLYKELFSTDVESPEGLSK

Liver = test: Intrinsic clearance in mouse liver microsomes at 0.5 microM by LC/MS/MS analysis; format: ADME
[2] = biological target: T2, Nuclear receptor ROR-gamma (Homo sapiens, UniProt P51449); test: Inverse agonist activity at APC-labeled RORgammat-LBD (unknown origin) assessed as inhibition of N-(2-chloro-6-fluorobenzyl)-N-((2'-methoxy-[1,1'-biphenyl]-4-yl)-methyl)benzenesulfonamide-induced europium-labeled SRC1 recruitment after 1 hr by FRET analysis
T2 sequence (P51449 whole entry): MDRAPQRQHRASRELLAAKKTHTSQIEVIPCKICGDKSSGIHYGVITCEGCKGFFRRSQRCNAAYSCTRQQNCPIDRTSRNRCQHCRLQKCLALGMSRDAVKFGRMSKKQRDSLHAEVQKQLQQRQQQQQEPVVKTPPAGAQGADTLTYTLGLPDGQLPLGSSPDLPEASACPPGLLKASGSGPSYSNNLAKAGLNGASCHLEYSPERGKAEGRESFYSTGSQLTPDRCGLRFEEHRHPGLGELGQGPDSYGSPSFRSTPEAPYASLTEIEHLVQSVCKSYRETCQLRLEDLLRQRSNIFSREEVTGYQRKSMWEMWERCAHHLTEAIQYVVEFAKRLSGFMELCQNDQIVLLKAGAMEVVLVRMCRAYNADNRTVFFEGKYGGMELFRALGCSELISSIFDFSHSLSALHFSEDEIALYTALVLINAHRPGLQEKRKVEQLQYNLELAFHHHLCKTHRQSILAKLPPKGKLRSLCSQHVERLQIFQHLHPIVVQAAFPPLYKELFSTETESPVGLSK

[3] = biological target: T2, Nuclear receptor ROR-gamma; test: Agonist activity at APC-labeled RORgammat-LBD (unknown origin) assessed as induction of europium-labeled SRC1 recruitment after 1 hr by dual FRET analysis

| SMILES | IC50 [1] [nM] | CLH (Liver) [mL/min/g] | IC50 [2] [nM] | EC50 [3] [nM] |
| --- | --- | --- | --- | --- |
| CCS(=O)(=O)c1ccc(CC(=O)Nc2nc(-c3cccc(C#N)c3)c(Oc3ccc(Cl)cc3C(F)(F)F)s2)cc1 | 158 | < 0.36 | – | – |
| CCS(=O)(=O)c1ccc(CC(=O)Nc2nc(-c3cc(Cl)ccc3Cl)c(-c3ccccc3)s2)cc1 | – | – | 158 | 3160 |
| CCS(=O)(=O)c1ccc(CC(=O)Nc2nc(-c3ccccc3)c(Oc3ccc(C(F)(F)F)cc3)s2)cc1 | 631 | < 0.36 | – | – |
| CCS(=O)(=O)c1ccc(CC(=O)Nc2nc(-c3ccc(Cl)cc3)c(Oc3ccccc3)s2)cc1 | 3980 | < 0.36 | – | – |
| CCS(=O)(=O)c1ccc(CC(=O)Nc2nc(-c3cccc(Cl)c3)c(Oc3ccccc3C(F)(F)F)s2)cc1 | 2000 | < 0.36 | – | – |
| CCS(=O)(=O)c1ccc(CC(=O)Nc2nc(-c3cccc(C#N)c3)c(Oc3ccccc3C(F)(F)F)s2)cc1 | 251 | < 0.36 | – | – |
| CCS(=O)(=O)c1ccc(CC(=O)Nc2nc(-c3cccc(C#N)c3)c(Oc3ccc(C(F)(F)F)cc3Cl)s2)cc1 | 398 | < 0.36 | – | – |

Further lines, results first:

| IC50 [1] [nM] | CLH (Liver) [mL/min/g] | IC50 [2] [nM] | EC50 [3] [nM] | SMILES |
| --- | --- | --- | --- | --- |
| 1580 | 0.46 | – | – | CCS(=O)(=O)c1ccc(CC(=O)Nc2nc(-c3ccccc3)c(Oc3ccccc3Cl)s2)cc1 |
| 1000 | < 0.36 | – | – | CCS(=O)(=O)c1ccc(CC(=O)Nc2nc(-c3ccccc3)c(Oc3ccccc3C(F)(F)F)s2)cc1 |
| 251 | 2.37 | – | – | CCS(=O)(=O)c1ccc(CC(=O)Nc2nc(-c3ccccc3)c(Oc3ccccc3OC)s2)cc1 |
| 1580 | < 0.36 | – | – | CCS(=O)(=O)c1ccc(CC(=O)Nc2nc(-c3ccccc3)c(Oc3ccc(Cl)cc3)s2)cc1 |
| > 10000 | 0.39 | – | – | CCS(=O)(=O)c1ccc(CC(=O)Nc2nc(-c3ccccc3)c(Oc3ccc(OC)cc3)s2)cc1 |
| 1580 | – | – | – | CCS(=O)(=O)c1ccc(CC(=O)Nc2nc(-c3cccc(Cl)c3)c(Oc3ccccc3)s2)cc1 |
